This experiment has as its system gastric acid secretion. The experiment can be described thus: animal or person. To be noted: iv; for inhibition in vivo at 1.6 mg/kg / inhibition in vivo at 0.8 mg/kg: Canis lupus familiaris. Type of experiment: in vivo, dog.
The mark [1] stands for this setting: 24 h, read-out: Persistency of inhibitory effect against gastric acid secretion (%).
Where [2] appears, read: read-out: Inhibitory effect against gastric acid secretion (%).

Structures can show the parent of a compound that is named as a salt. Where two headings read alike, the source gives them in different places.

Consider `Cc1c(OC2CCC3(CC2)OCCO3)ccnc1C[S+]([O-])c1nc2ccccc2[nH]1` (stereo not drawn) [Example 27, 2-(((4-(1,4-dioxaspiro[4.5]dec-8-yloxy)-3-methylpyridin-2-yl)methyl)sulfinyl)-1H-benzimidazole sodium salt], for which the inhibition in vivo at 1.6 mg/kg was determined as 92% under setting [1] and 100% under setting [2].
Taken in the same sequence, the figures for `Cc1c(OCCC2COC(C)(C)OC2)ccnc1C[S+]([O-])c1nc2ccccc2[nH]1` (stereo not drawn) [Example 28, 2-(((4-(2-(2,2-dimethyl-1,3-dioxan-5-yl)ethoxy)-3-methylpyridin-2-yl)methyl)sulfinyl)-1H-benzimidazole sodium salt] were 77% and 94%.
Turning to `CCC12OCC(COc3ccnc(C[S+]([O-])c4nc5ccccc5[n-]4)c3C)(CO1)CO2.[Na+]` (stereo not drawn) [Example 29, 2-(((4-((1-ethyl-2,6,7-trioxabicyclo[2.2.2]oct-4-yl)methoxy)-3-methylpyridin-2-yl)methyl)sulfinyl)-1H-benzimidazole sodium salt], where the note is “dog, in vivo, 1.6 mg/kg”, the “Inhibitory effect against gastric acid secretion (%)” value came to 100% and the “Persistency of inhibitory effect against gastric acid secretion (%)” value is reported as 87%.
Consider `Cc1c(OCCC2(C)OCCCO2)ccnc1C[S+]([O-])c1nc2ccccc2[nH]1` (stereo not drawn) [Example 30, 2-(((3-methyl-4-(2-(2-methyl-1,3-dioxan-2-yl)ethoxy)pyridin-2-yl)methyl)sulfinyl)-1H-benzimidazole sodium salt], for which, under setting [1], the inhibition in vivo at 0.8 mg/kg amounted to 63% and the inhibition in vivo at 1.6 mg/kg was 95%. Also, under setting [2], the inhibition in vivo at 0.8 mg/kg is 100% and the inhibition in vivo at 1.6 mg/kg stood at 100%.
`Cc1c(OCCC2COC3(CCC3)OC2)ccnc1C[S+]([O-])c1nc2ccccc2[nH]1` (stereo not drawn) [Example 31, 2-(((4-(2-(5,9-dioxaspiro[3.5]non-7-yl)ethoxy)-3-methylpyridin-2-yl)methyl)sulfinyl)-1H-benzimidazole sodium salt]: the inhibition in vivo at 1.6 mg/kg under setting [1] turned out to be 97% and the inhibition in vivo at 1.6 mg/kg under setting [2] was determined as 100%.
On the same counts, the results for `Cc1c(OCC2OCCCO2)ccnc1C[S+]([O-])c1nc2ccccc2[nH]1` (stereo not drawn) [Example 32, 2-(((4-(1,3-dioxan-2-ylmethoxy)-3-methylpyridin-2-yl)methyl)sulfinyl)-1H-benzimidazole sodium salt] are 83% and 100%.
Taken in the same sequence, the figures for `Cc1c(OCC2(C)OCCCO2)ccnc1C[S+]([O-])c1nc2ccccc2[nH]1` (stereo not drawn) [Example 33, 2-(((3-methyl-4-((2-methyl-1,3-dioxan-2-yl)methoxy)pyridin-2-yl)methyl)sulfinyl)-1H-benzimidazole sodium salt] were 84% and 100%.
In the case of `Cc1c(OCCC2(C)OCC(C)(C)CO2)ccnc1C[S+]([O-])c1nc2ccccc2[nH]1` (stereo not drawn) [Example 34, 2-(((3-methyl-4-(2-(2,5,5-trimethyl-1,3-dioxan-2-yl)ethoxy)pyridin-2-yl)methyl)sulfinyl)-1H-benzimidazole sodium salt], the inhibition in vivo at 1.6 mg/kg is, setting by setting: under setting [1], 78%; under setting [2], 100%.
Taken in the same sequence, the figures for `COCC1(CCOc2ccnc(C[S+]([O-])c3nc4ccccc4[nH]3)c2C)OCCCO1` (stereo not drawn) [Example 36, 2-(((4-(2-(2-(methoxymethyl)-1,3-dioxan-2-yl)ethoxy)-3-methylpyridin-2-yl)methyl)sulfinyl)-1H-benzimidazole sodium salt] were 90% and 100%.
On the same counts, the results for `CCC1(CCOc2ccnc(C[S+]([O-])c3nc4ccccc4[nH]3)c2C)OCCO1` (stereo not drawn) [Example 39, 2-(((4-(2-(2-ethyl-1,3-dioxolan-2-yl)ethoxy)-3-methylpyridin-2-yl)methyl)sulfinyl)-1H-benzimidazole sodium salt] are 86% and 100%.
Consider `CCC1(COc2ccnc(C[S+]([O-])c3nc4ccccc4[nH]3)c2C)OCCO1` (stereo not drawn) [Example 40, 2-(((4-((2-ethyl-1,3-dioxolan-2-yl)methoxy)-3-methylpyridin-2-yl)methyl)sulfinyl)-1H-benzimidazole sodium salt], for which, under setting [1], the inhibition in vivo at 0.8 mg/kg was found to be 66% and the inhibition in vivo at 1.6 mg/kg came out at 92%. In addition, under setting [2], the inhibition in vivo at 0.8 mg/kg is 99% and the inhibition in vivo at 1.6 mg/kg was found to be 100%.
For the compound `CCC1(CCOc2ccnc(C[S+]([O-])c3nc4c(C)cccc4[nH]3)c2C)OCCO1` (stereo not drawn) [Example 41, 2-(((4-(2-(2-ethyl-1,3-dioxolan-2-yl)ethoxy)-3-methylpyridin-2-yl)methyl)sulfinyl)-4-methyl-1H-benzimidazole sodium salt], the inhibition in vivo at 1.6 mg/kg runs as follows: under setting [1], 85%; under setting [2], 100%.
On to `CCC1(COc2ccnc(C[S+]([O-])c3nc4ccccc4[nH]3)c2C)OCCCO1` (stereo not drawn) [Example 42, 2-(((4-((2-ethyl-1,3-dioxan-2-yl)methoxy)-3-methylpyridin-2-yl)methyl)sulfinyl)-1H-benzimidazole sodium salt], for which the inhibition in vivo at 0.8 mg/kg by setting is: under setting [1], 72%; under setting [2], 60%.
On the same counts, the results for `Cc1c(OCC2OCC(F)(F)CO2)ccnc1C[S+]([O-])c1nc2ccccc2[nH]1` (stereo not drawn) [Example 46, 2-(((4-((5,5-difluoro-1,3-dioxan-2-yl)methoxy)-3-methylpyridin-2-yl)methyl)sulfinyl)-1H-benzimidazole sodium salt] are 95% and 100%.
Regarding `Cc1ccc2[nH]c([S+]([O-])Cc3nccc(OCCC4COC(C)(C)O4)c3C)nc2c1` (stereo not drawn) [Example 47, 2-(((4-(2-(2,2-dimethyl-1,3-dioxolan-4-yl)ethoxy)-3-methylpyridin-2-yl)methyl)sulfinyl)-5-methyl-1H-benzimidazole sodium salt], the inhibition in vivo at 1.6 mg/kg is, setting by setting: under setting [1], 87%; under setting [2], 100%.
For `[O-][S+](Cc1cc(OCC2OCC3(CC3)CO2)ccn1)c1nc2ccccc2[nH]1` (stereo not drawn) [Example 50, 2-(((4-(5,7-dioxaspiro[2.5]oct-6-ylmethoxy)pyridin-2-yl)methyl)sulfinyl)-1H-benzimidazole sodium salt], the inhibition in vivo at 0.8 mg/kg is 80% under setting [1] and 79% under setting [2].
With `CCc1c(OCC2COC(C)(C)O2)ccnc1C[S+]([O-])c1nc2ccccc2[nH]1` (stereo not drawn) [Example 51, 2-(((4-((2,2-dimethyl-1,3-dioxolan-4-yl)methoxy)-3-ethylpyridin-2-yl)methyl)sulfinyl)-1H-benzimidazole sodium salt], the inhibition in vivo at 1.6 mg/kg under setting [1] came to 83% and the inhibition in vivo at 1.6 mg/kg under setting [2] turned out to be 100%.
Taken in the same sequence, the figures for `Cc1c(OCC2COC(C)(C)O2)ccnc1C[S+]([O-])c1nc2cc(F)ccc2[nH]1` (stereo not drawn) [Example 52, 2-(((4-((2,2-dimethyl-1,3-dioxolan-4-yl)methoxy)-3-methylpyridin-2-yl)methyl)sulfinyl)-5-fluoro-1H-benzimidazole sodium salt] were 87% and 100%.
`Cc1c(OCC2COCOC2)ccnc1C[S+]([O-])c1nc2ccccc2[nH]1` (stereo not drawn) [Example 53, 2-(((4-(1,3-dioxan-5-ylmethoxy)-3-methylpyridin-2-yl)methyl)sulfinyl)-1H-benzimidazole sodium salt]: the inhibition in vivo at 0.8 mg/kg stood at 87% under setting [1] and 99% under setting [2].

Source of the values: patent US8124780B2, “Benzimidazole compound” (priority 2005, dated 2012).
